Laboratory results: PubChem BioAssay (NCI)
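Following 48 hours of exposure in 96-well plates, responses at five concentrations were used to interpolate endpoints linearly. TGI marks complete inhibition of growth.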

Key:
Experiment in all cases: NCI tumour cell line growth inhibition, 48 h
MDA-MB-435 = test system: MDA-MB-435
SF-539 CNS = test system: SF-539 CNS
MALME-3M melanoma = test system: MALME-3M melanoma
COLO 205 colon = test system: COLO 205 colon
SK-MEL-5 melanoma = test system: SK-MEL-5 melanoma
MDA-N = test system: MDA-N
SR leukemia = test system: SR leukemia
M14 melanoma = test system: M14 melanoma
ACHN renal = test system: ACHN renal
OVCAR-5 ovarian = test system: OVCAR-5 ovarian
A549 NSCLC = test system: A549 NSCLC
HOP-92 NSCLC = test system: HOP-92 NSCLC
EKVX NSCLC = test system: EKVX NSCLC
HCC-2998 colon = test system: HCC-2998 colon
UACC-257 melanoma = test system: UACC-257 melanoma
SN12C renal = test system: SN12C renal
SF-295 CNS = test system: SF-295 CNS
NCI-H226 lung = test system: NCI-H226 lung
CAKI-1 renal = test system: CAKI-1 renal
MDA-MB-231 breast = test system: MDA-MB-231 breast
HL-60(TB) leukemia = test system: HL-60(TB) leukemia
IGROV1 ovarian = test system: IGROV1 ovarian
NCI-H522 lung = test system: NCI-H522 lung
TK-10 renal = test system: TK-10 renal
OVCAR-3 ovarian = test system: OVCAR-3 ovarian
SF-268 CNS = test system: SF-268 CNS
NCI-H460 lung = test system: NCI-H460 lung
HOP-62 NSCLC = test system: HOP-62 NSCLC
SNB-75 CNS = test system: SNB-75 CNS
KM12 colon = test system: KM12 colon
NCI-H23 lung = test system: NCI-H23 lung
A498 renal = test system: A498 renal
T-47D breast = test system: T-47D breast
U251 CNS = test system: U251 CNS
UO-31 renal = test system: UO-31 renal
BT-549 breast = test system: BT-549 breast
HS 578T breast = test system: HS 578T breast
LOX IMVI melanoma = test system: LOX IMVI melanoma
OVCAR-4 ovarian = test system: OVCAR-4 ovarian
RXF 393 renal = test system: RXF 393 renal
HCT-116 colon = test system: HCT-116 colon
SK-MEL-2 melanoma = test system: SK-MEL-2 melanoma
NCI/ADR-RES ovarian = test system: NCI/ADR-RES ovarian
SK-MEL-28 melanoma = test system: SK-MEL-28 melanoma
786-0 renal = test system: 786-0 renal
PC-3 prostate = test system: PC-3 prostate
MCF7 breast = test system: MCF7 breast
SW-620 colon = test system: SW-620 colon
HCT-15 colon = test system: HCT-15 colon
DU-145 prostate = test system: DU-145 prostate
K-562 leukemia = test system: K-562 leukemia
SK-OV-3 ovarian = test system: SK-OV-3 ovarian
CCRF-CEM leukemia = test system: CCRF-CEM leukemia
SNB-19 CNS = test system: SNB-19 CNS
MOLT-4 leukemia = test system: MOLT-4 leukemia
RPMI-8226 leukemia = test system: RPMI-8226 leukemia
OVCAR-8 ovarian = test system: OVCAR-8 ovarian
UACC-62 melanoma = test system: UACC-62 melanoma
HT29 colon = test system: HT29 colon

Compound: N#CC1CCCC2SC(F)(F)C(F)(F)C12 (stereo not drawn)
- TGI (MDA-MB-435): > 100 µM
- TGI (SF-539 CNS): > 100 µM
- TGI (MALME-3M melanoma): > 100 µM
- TGI (COLO 205 colon): > 100 µM
- TGI (SK-MEL-5 melanoma): > 100 µM
- TGI (MDA-N): > 100 µM
- TGI (SR leukemia): 72.7 µM
- TGI (M14 melanoma): > 100 µM
- TGI (ACHN renal): > 100 µM
- TGI (OVCAR-5 ovarian): > 100 µM
- TGI (A549 NSCLC): > 100 µM
- TGI (HOP-92 NSCLC): > 100 µM
- TGI (EKVX NSCLC): > 100 µM
- TGI (HCC-2998 colon): > 100 µM
- TGI (UACC-257 melanoma): > 100 µM
- TGI (SN12C renal): > 100 µM
- TGI (SF-295 CNS): > 100 µM
- TGI (NCI-H226 lung): > 100 µM
- TGI (CAKI-1 renal): > 100 µM
- TGI (MDA-MB-231 breast): > 100 µM
- TGI (HL-60(TB) leukemia): 54.9 µM
- TGI (IGROV1 ovarian): > 100 µM
- TGI (NCI-H522 lung): > 100 µM
- TGI (TK-10 renal): > 100 µM
- TGI (OVCAR-3 ovarian): > 100 µM
- TGI (SF-268 CNS): > 100 µM
- TGI (NCI-H460 lung): > 100 µM
- TGI (HOP-62 NSCLC): > 100 µM
- TGI (SNB-75 CNS): > 100 µM
- TGI (KM12 colon): > 100 µM
- TGI (NCI-H23 lung): > 100 µM
- TGI (A498 renal): > 100 µM
- TGI (T-47D breast): > 100 µM
- TGI (U251 CNS): > 100 µM
- TGI (UO-31 renal): > 100 µM
- TGI (BT-549 breast): > 100 µM
- TGI (HS 578T breast): > 100 µM
- TGI (LOX IMVI melanoma): > 100 µM
- TGI (OVCAR-4 ovarian): > 100 µM
- TGI (RXF 393 renal): > 100 µM
- TGI (HCT-116 colon): > 100 µM
- TGI (SK-MEL-2 melanoma): > 100 µM
- TGI (NCI/ADR-RES ovarian): > 100 µM
- TGI (SK-MEL-28 melanoma): > 100 µM
- TGI (786-0 renal): > 100 µM
- TGI (PC-3 prostate): > 100 µM
- TGI (MCF7 breast): > 100 µM
- TGI (SW-620 colon): > 100 µM
- TGI (HCT-15 colon): > 100 µM
- TGI (DU-145 prostate): > 100 µM
- TGI (K-562 leukemia): > 78.3 µM
- TGI (SK-OV-3 ovarian): > 100 µM
- TGI (CCRF-CEM leukemia): > 66.7 µM
- TGI (SNB-19 CNS): > 100 µM
- TGI (MOLT-4 leukemia): 99.3 µM
- TGI (RPMI-8226 leukemia): > 100 µM
- TGI (OVCAR-8 ovarian): > 100 µM
- TGI (UACC-62 melanoma): > 100 µM
- TGI (HT29 colon): > 100 µM

Compound: CC1(C)Oc2ccccc2OC1O (stereo not drawn)
- TGI (MDA-MB-435): > 100 µM
- TGI (SF-539 CNS): > 100 µM
- TGI (MALME-3M melanoma): > 100 µM
- TGI (COLO 205 colon): > 100 µM
- TGI (SK-MEL-5 melanoma): > 100 µM
- TGI (MDA-N): > 100 µM
- TGI (SR leukemia): > 100 µM
- TGI (M14 melanoma): > 100 µM
- TGI (ACHN renal): > 100 µM
- TGI (OVCAR-5 ovarian): > 100 µM
- TGI (A549 NSCLC): > 100 µM
- TGI (HOP-92 NSCLC): > 100 µM
- TGI (EKVX NSCLC): > 100 µM
- TGI (HCC-2998 colon): > 100 µM
- TGI (UACC-257 melanoma): > 100 µM
- TGI (SN12C renal): > 100 µM
- TGI (SF-295 CNS): > 100 µM
- TGI (NCI-H226 lung): > 100 µM
- TGI (CAKI-1 renal): > 100 µM
- TGI (MDA-MB-231 breast): > 100 µM
- TGI (HL-60(TB) leukemia): > 100 µM
- TGI (IGROV1 ovarian): > 100 µM
- TGI (NCI-H522 lung): > 100 µM
- TGI (TK-10 renal): > 100 µM
- TGI (OVCAR-3 ovarian): > 100 µM
- TGI (SF-268 CNS): > 100 µM
- TGI (NCI-H460 lung): > 100 µM
- TGI (HOP-62 NSCLC): > 100 µM
- TGI (SNB-75 CNS): > 100 µM
- TGI (KM12 colon): > 100 µM
- TGI (NCI-H23 lung): > 100 µM
- TGI (A498 renal): > 100 µM
- TGI (T-47D breast): > 100 µM
- TGI (U251 CNS): > 100 µM
- TGI (UO-31 renal): > 100 µM
- TGI (BT-549 breast): > 100 µM
- TGI (HS 578T breast): > 100 µM
- TGI (LOX IMVI melanoma): > 100 µM
- TGI (OVCAR-4 ovarian): > 100 µM
- TGI (RXF 393 renal): > 100 µM
- TGI (HCT-116 colon): > 100 µM
- TGI (SK-MEL-2 melanoma): > 100 µM
- TGI (NCI/ADR-RES ovarian): > 100 µM
- TGI (SK-MEL-28 melanoma): > 100 µM
- TGI (786-0 renal): > 100 µM
- TGI (PC-3 prostate): > 100 µM
- TGI (MCF7 breast): > 100 µM
- TGI (SW-620 colon): > 100 µM
- TGI (HCT-15 colon): > 100 µM
- TGI (DU-145 prostate): > 100 µM
- TGI (K-562 leukemia): > 100 µM
- TGI (SK-OV-3 ovarian): > 100 µM
- TGI (CCRF-CEM leukemia): > 100 µM
- TGI (SNB-19 CNS): > 100 µM
- TGI (MOLT-4 leukemia): > 100 µM
- TGI (RPMI-8226 leukemia): > 100 µM
- TGI (OVCAR-8 ovarian): > 100 µM
- TGI (UACC-62 melanoma): > 100 µM
- TGI (HT29 colon): > 100 µM
